Patent publication US20120165330A1, “QUINAZOLINONE AND RELATED ANALOGS AS SIRTUIN MODULATORS” (Sirtris Pharmaceuticals, Inc., priority 2010, published 2012)
Read-outs that look alike come from different tables or passages of the source.

Columns and labels:
[1] = target: T1, SIRT1 (Homo sapiens, UniProt Q96EB6); assay: mass spectrometry based assay to identify modulators of SIRT1 activity; type: biochemical; settings: for Emax: 25 min, percent maximum fold activation of SIRT1, read-out: SIRT1 % FOLD ACT.; for EC1.5 (concentration for 1.5-fold activation): concentration for 1.5-fold activation of SIRT1 deacetylase, 0.5 μM peptide substrate, 120 μM βNAD+, 10 nM SIRT1, 25 min at 25° C.
T1 sequence (Q96EB6 1-747): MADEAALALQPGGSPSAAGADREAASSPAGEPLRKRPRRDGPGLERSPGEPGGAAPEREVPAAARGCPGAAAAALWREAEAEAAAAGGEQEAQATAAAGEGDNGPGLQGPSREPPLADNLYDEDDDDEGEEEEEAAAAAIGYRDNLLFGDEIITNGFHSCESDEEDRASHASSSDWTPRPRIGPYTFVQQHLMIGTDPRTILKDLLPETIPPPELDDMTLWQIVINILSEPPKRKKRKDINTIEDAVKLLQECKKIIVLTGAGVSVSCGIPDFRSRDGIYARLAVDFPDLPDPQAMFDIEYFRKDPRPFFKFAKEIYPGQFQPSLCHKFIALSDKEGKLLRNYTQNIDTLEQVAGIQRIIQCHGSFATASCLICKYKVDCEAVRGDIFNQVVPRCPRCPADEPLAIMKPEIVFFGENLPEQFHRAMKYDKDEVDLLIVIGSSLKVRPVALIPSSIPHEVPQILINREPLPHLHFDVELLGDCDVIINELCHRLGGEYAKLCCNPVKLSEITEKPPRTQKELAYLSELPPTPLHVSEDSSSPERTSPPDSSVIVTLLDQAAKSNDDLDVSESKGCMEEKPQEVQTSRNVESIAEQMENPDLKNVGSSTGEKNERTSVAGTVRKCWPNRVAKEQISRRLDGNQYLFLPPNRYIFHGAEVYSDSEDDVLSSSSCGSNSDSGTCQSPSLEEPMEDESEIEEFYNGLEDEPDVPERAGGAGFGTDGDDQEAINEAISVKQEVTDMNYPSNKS
Text: (§1) A mass spectrometry based assay was used to identify modulators of SIRT1 activity. […] The peptide is labeled with the fluorophore 5TMR (excitation 540 nm/emission 580 nm) at the C-terminus. The sequence of the peptide substrate is based on p53 with several modifications. In addition, the methionine residue naturally present in the sequence was replaced with the norleucine because the methionine may be susceptible to oxidation during synthesis and purification.
(§2) Test compounds may be added to the reaction as described above. The SirT1 gene is cloned into a T7-promoter containing vector and transformed into BL21(DE3). After the 25 minute incubation with SIRT1, 10 μL of 10% formic acid is added to stop the reaction. Reactions are sealed and frozen for later mass spec analysis. Determination of the mass of the substrate peptide allows for precise determination of the degree of acetylation (i.e. starting material) as compared to deacetylated peptide (product).
(§3) This timepoint is the same as that used for test compounds and, within the linear range, the endpoint represents a change in velocity.
For the above assay, SIRT1 protein was expressed and purified as follows. The SirT1 gene was cloned into a T7-promoter containing vector and transformed into BL21(DE3). The protein was expressed by induction with 1 mM IPTG as an N-terminal His-tag fusion protein at 18° C. overnight and harvested at 30,000×g. Cells were lysed with lysozyme in lysis buffer (50 mM Tris-HCl, 2 mM Tris[2-carboxyethyl]phosphine (TCEP), 10 μM ZnCl2, 200 mM NaCl) and further treated with sonication for 10 min for complete lysis. The protein was purified over a Ni-NTA column (Amersham) and fractions containing pure protein were pooled, concentrated and run over a sizing column ([…]). The peak containing soluble protein was collected and run on an Ion-exchange column (MonoQ). Gradient elution (200 mM-500 mM NaCl) yielded pure protein. This protein was concentrated and dialyzed against dialysis buffer (20 mM Tris-HCl, 2 mM TCEP) overnight. The protein was aliquoted and frozen at −80° C. until further use.

[2] = target: T2, SIRT2 (Homo sapiens, UniProt Q8IXJ6); assay: mass spectrometry based assay to identify modulators of SIRT2 inhibition; type: biochemical
T2 sequence (Q8IXJ6 1-389): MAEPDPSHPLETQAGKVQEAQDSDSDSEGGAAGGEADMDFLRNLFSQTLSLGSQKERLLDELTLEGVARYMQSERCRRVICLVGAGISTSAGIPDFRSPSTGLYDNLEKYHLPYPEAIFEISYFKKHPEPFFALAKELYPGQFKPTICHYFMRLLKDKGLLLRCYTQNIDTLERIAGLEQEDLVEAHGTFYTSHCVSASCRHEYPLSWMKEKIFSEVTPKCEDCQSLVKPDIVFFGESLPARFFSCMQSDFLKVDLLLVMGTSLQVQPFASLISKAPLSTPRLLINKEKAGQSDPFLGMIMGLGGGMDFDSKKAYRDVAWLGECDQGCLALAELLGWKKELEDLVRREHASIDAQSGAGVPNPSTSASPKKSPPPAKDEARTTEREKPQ
Text: as §1, with “SIRT2 inhibition.” for “SIRT1 activity.”
as §2, with “SirT2” for “SirT1”, “30” for “25”, “SIRT2,” for “SIRT1,”
as §3
For the above assay, SIRT2 protein was expressed and purified as follows. The SirT2 gene was cloned into a T7-promoter containing vector and transformed into BL21(DE3) with chaperone plasmid. The protein was expressed by induction with 0.3 mM IPTG as an N-terminal His-tag fusion protein at 18° C. overnight and harvested at 30,000×g. Cells were lysed with sonication in lysis buffer (50 mM Tris-HCl, 10% glycerol, 300 mM NaCl, pH 7.8) for 10 min. The protein was purified over a Ni-NTA column (GE Healthcare) and eluted with lysis buffer containing 100 to 250 mM imidazole. Fractions containing target protein were pooled and TEV protease (Invitrogen) was added to the protein and incubated at 4° C. overnight in lysis buffer to remove the N-terminal His tag. The treated sample was added back on Ni-NTA column. Target protein was obtained by eluting with lysis buffer with 5 mM imidazole and loaded onto the Q-Sepharose F.F. column. The flow-through fraction of Q-Sepharose F.F. column was then directly re-adsorbed on the SP-Sepharose F.F. column and eluted with 20 mM Tris-HCl, 100 mM NaCl, pH 7.8. The protein was concentrated with 50 ml Amicon Ultra centrifugal-filter device (Millipore), then loaded on S-200 gel filtration column and eluted with 20 mM Tris-HCl, 200 mM NaCl, pH 8.0. The protein was aliquoted and frozen at −80° C. until further use.

[3] = 2.68 μM peptide substrate, 135 μM βNAD+, 50 nM SIRT2, 30 min at room temperature, read-out: SIRT2 IC50 UM

Emax [1] [%] | EC1.5 (concentration for 1.5-fold activation) ([1]; read-out: SIRT1 EC1.5 UM) [µM] | IC50 [2, 3] [µM] | Compound | IC50 [2] [µM] | EC1.5 (concentration for 1.5-fold activation) ([1]; read-out: SIRT1 EC1.5 µM) [µM]
> 150 | < 50 |  | Cc1nc2cccc(NC(=O)c3cccc(OCC(O)CO)n3)c2c(=O)n1-c1cccc(OC(F)(F)F)c1 (stereo not drawn) [Compound 9, 6-(2,3-dihydroxypropoxy)-N-(2-methyl-4-oxo-3-(3-(trifluoromethoxy)phenyl)-3,4-dihydroquinazolin-5-yl)picolinamide] |  | 
 |  | < 10 | Cc1nc2cccc(NC(=O)c3cscn3)c2c(=O)n1-c1cccc(C(F)(F)F)c1 [Compound 1, N-(2-methyl-4-oxo-3-(3-(trifluoromethyl)phenyl)-3,4-dihydroquinazolin-5-yl)thiazole-4-carboxamide] |  | 
> 150 | < 50 | 10 to 50 | Cc1nc2cccc(NC(=O)c3cnccn3)c2c(=O)n1-c1cccc(OC(F)(F)F)c1 [Compound 4, N-(2-methyl-4-oxo-3-(3-(trifluoromethoxy)phenyl)-3,4-dihydroquinazolin-5-yl)pyrazine-2-carboxamide] |  | 
> 150 | < 50 |  | Cc1nc2cccc(NC(=O)c3cscn3)c2c(=O)n1-c1cccc(C(F)(F)F)c1 [Compound 8, N-(2-methyl-4-oxo-3-(3-(trifluoromethyl)phenyl)-3,4-dihydroquinazolin-5-yl)thiazole-4-carboxamide] |  | 
< 150 | > 50 | 10 to 50 | Cc1nc2cccc(NC(=O)Cc3cccnc3)c2c(=O)n1-c1cccc(OC(F)(F)F)c1 [Compound 5, N-(2-methyl-4-oxo-3-(3-(trifluoromethoxy)phenyl)-3,4-dihydroquinazolin-5-yl)-2-(pyridin-3-yl)acetamide] |  | 
> 150 | < 50 |  | Cc1nc2cccc(NC(=O)c3cccc(CN4CCOCC4)n3)c2c(=O)n1-c1cccc(C(F)(F)F)c1 [Compound 7, N-(2-methyl-4-oxo-3-(3-(trifluoromethyl)phenyl)-3,4-dihydroquinazolin-5-yl)-6-(morpholinomethyl)picolinamide] |  | 

Compound | Emax [1] [%] | EC1.5 (concentration for 1.5-fold activation) ([1]; read-out: SIRT1 EC1.5 UM) [µM] | IC50 [2, 3] [µM] | IC50 [2] [µM] | EC1.5 (concentration for 1.5-fold activation) ([1]; read-out: SIRT1 EC1.5 µM) [µM]
Cc1nc2cccc(NC(=O)c3cnccn3)c2c(=O)n1-c1cccc(C(F)(F)F)c1 [Compound 2, N-(2-methyl-4-oxo-3-(3-(trifluoromethyl)phenyl)-3,4-dihydroquinazolin-5-yl)pyrazine-2-carboxamide] | > 150 |  |  | 10 to 50 | < 50
Cc1nc2cccc(NC(=O)c3cccc(OCC(O)CO)n3)c2c(=O)n1-c1cccc(C(F)(F)F)c1 (stereo not drawn) [Compound 6, 6-(2,3-dihydroxypropoxy)-N-(2-methyl-4-oxo-3-(3-(trifluoromethyl)phenyl)-3,4-dihydroquinazolin-5-yl)picolinamide] | > 150 |  |  |  | < 50
Cc1nc2cccc(NC(=O)c3cscn3)c2c(=O)n1-c1cccc(OC(F)(F)F)c1 [Compound 3, N-(2-methyl-4-oxo-3-(3-(trifluoromethoxy)phenyl)-3,4-dihydroquinazolin-5-yl)thiazole-4-carboxamide] | < 150 | > 50 | < 10 |  | 
